This passage reports EC50 results from PubChem BioAssay AID812 (SRMLSC, 2007).

The source made the active and inactive calls. No rule for the calls is given here. A value given as a limit tells only on which side of the number the result lay.

As usually defined, the EC50 is the concentration at which the effect is half-maximal.

In this experiment the test system is Saccharomyces cerevisiae lifespan extension, no nicotinamide. Put plainly: yeast lifespan extension without nicotinamide, confirmation, yeast lifespan extension project, S. cerevisiae (AID 812).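 Also: growth read as optical density after 42 hours of incubation at 30C.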
Turning to `CCCCCCCC(=O)N/N=C(/C)c1c(O)cc(C)oc1=O`, the EC50 was > 40 µM (inactive). The value for `CCOC(=O)Cc1csc(NC(=O)c2c(O)c3ccccc3n(CC(C)C)c2=O)n1` was > 40 µM (inactive); that for `COC(=O)c1sc2ncn(-n3c(C)ccc3C)c(=O)c2c1C` was > 40 µM (inactive). In the case of `COc1ccc(NC(=S)N2CCN(CCN=CC3=C(O)CC(c4ccccc4)CC3=O)CC2)cc1` (configuration not stated) it was > 40 µM (inactive); in that of `CCc1ccc2nc(N3C(=O)C(O)=C(C(=O)c4ccco4)C3c3cccs3)sc2c1` (configuration not stated), > 40 µM (inactive); in that of `Cc1ccc(N2NC(=O)/C(=C\c3cc4c(cc3[N+](=O)[O-])OCO4)C2=O)cc1C`, > 40 µM (inactive).

Turning to `O=S(=O)(Nc1nc2ccccc2nc1Cl)c1ccc2ccccc2c1`, the EC50 is > 40 µM (inactive). The value for `CCCCOC(=O)CSc1nc2c(c(=O)[nH]c(=O)n2C)n1C/C=C(\C)Cl` was > 40 µM (inactive); that for `CCC(=O)Nc1ccccc1Sc1ncnc2scc(-c3ccccc3)c12` was > 40 µM (inactive). On to `CC(C)c1ccc2occ(-c3nn[nH]n3)c(=O)c2c1`, for which the EC50 was > 40 µM (inactive). In the case of `O=[N+]([O-])c1cc(S(=O)(=O)N2CCCCCC2)ccc1F`, the EC50 was > 40 µM (inactive). In the case of `COn1c(SC2CCCCC2)nc2ccccc2c1=O` it was > 40 µM (inactive); in that of `O=c1c2[nH]c3ccccc3c2ncn1Cc1ccco1`, > 40 µM (inactive). For `O=C(CS(=O)c1ccc(C(F)(F)F)cc1[N+](=O)[O-])Oc1ccccc1` (configuration not stated), the EC50 was > 40 µM (inactive). Take `Cc1ccc(-c2ccc(/C=C3\C(=O)ON=C3c3ccccc3)o2)c([N+](=O)[O-])c1`: the EC50 was > 40 µM (inactive). In the case of `COC(=O)C1=C(C(=O)OC)C(c2ccccc2O)c2sc(=O)[nH]c2S1` (configuration not stated), the EC50 is > 40 µM (inactive). In the case of `COc1ccc(-c2cc(C(F)(F)F)nc(S(C)(=O)=O)n2)cc1OC` it was > 40 µM (inactive); in that of `CCOC(=O)c1cnc(-c2ccccc2)nc1Oc1ccc(Cl)cc1`, > 40 µM (inactive).

`COC(=O)C1=C(N)OC2=C(C(=O)CC(C)(C)C2)C1c1cccs1` (configuration not stated): the EC50 was > 40 µM (inactive). On to `CC(=O)Nc1ccc(C(=O)CSc2nnc(-c3ccc(O)cc3)n2CC2CCCO2)cc1` (configuration not stated), for which the EC50 is > 40 µM (inactive).

Turning to `CCOC(=O)C(=Cc1ccc(F)cc1)C(=O)OCC`, the EC50 is > 40 µM (inactive). Regarding `CS(=O)(=O)c1nc(-c2ccccc2)cc(C(F)(F)F)n1`, the EC50 is > 40 µM (inactive). `CC(=O)Oc1oc(-c2ccccc2)nc1C=Nc1ccccc1`: the EC50 was > 40 µM (inactive).

On to `Fc1cccc2sc(Nc3nnc(-c4ccccc4)o3)nc12`, for which the EC50 was > 40 µM (inactive). `CCCC(=O)Nc1ccccc1Sc1ncnc2scc(-c3ccccc3)c12`: the EC50 was > 40 µM (inactive). For `COc1ccc(CN2C(=O)/C(=C/c3ccncc3)SC2=S)cc1`, the EC50 was > 40 µM (inactive).

On to `O=C(NCc1ccco1)c1cc(C(=O)C2CCCCC2)c[nH]1`, for which the EC50 was > 40 µM (inactive).

Turning to `CCOC(=O)C1Cc2cc3c(cc2C1=O)CC(C(=O)OCC)C3=O` (configuration not stated), the EC50 is > 40 µM (inactive). The value for `Cc1ccc(NC(=O)C2C(=O)N(C)c3ccccc32)cc1` (configuration not stated) was > 40 µM (inactive).

As to `Cc1[nH]nc2nc3c(c(OC(=O)c4ccccc4)c12)c(=O)n(C)c(=O)n3C`, the EC50 was > 40 µM (inactive). The value for `CC1=NN(Cc2ccccc2)C(=O)C1C(c1ccccc1)C(C#N)C#N` (configuration not stated) was > 40 µM (inactive); that for `COc1cnc(-c2ccccn2)nc1Sc1cccc(Cl)c1` was > 40 µM (inactive); that for `COc1cc(OC)cc(-c2nc3ccccc3c(=O)n2OC(=O)c2ccccc2C)c1` was > 40 µM (inactive). The value for `CCCC(=O)Nc1ccc(C(=O)NNC(=S)NC(=O)c2cccs2)cc1` was > 40 µM (inactive); that for `Cc1ccc(N(C)C(=O)Oc2ccc(C(=O)c3ccc(Cl)cc3)cc2)cc1` was > 40 µM (inactive); that for `CCNCCNC(=O)c1c(O)c2cccc3c2n(c1=O)CCC3` was > 40 µM (inactive). Regarding `CC(C)n1c(-c2ccccc2F)n[nH]c1=S`, the EC50 is > 40 µM (inactive).

Take `O=c1cc(-c2c(F)c(F)c(F)c(F)c2F)oc2c(F)c(F)c(F)c(F)c12`: the EC50 is > 40 µM (inactive).

For the compound `Cc1ccc(C(=O)OC2=CC(=O)CC(C)(C)C2)cc1`, the EC50 was > 40 µM (inactive).

Take `COC(=O)C1=C(C(=O)OC)SC(=C2C(=S)C(C)(C)N(C(=O)C(C)C)c3ccccc32)S1`: the EC50 was > 40 µM (inactive).

As to `N#CSCC(=O)N1c2ccccc2CCc2ccccc21`, the EC50 was > 40 µM (inactive).

On to `CCc1[nH]nc2c1C(c1ccc(Br)s1)C(C#N)=C(N)O2` (configuration not stated), for which the EC50 is > 40 µM (inactive).

On to `Cc1cc(C)n2cc(CSc3nnc(N)s3)nc2n1`, for which the EC50 is > 40 µM (inactive). The value for `O=C1ON=C(c2ccccc2)/C1=C/c1ccc(-c2ccccc2[N+](=O)[O-])o1` was > 40 µM (inactive); that for `ClC(Cl)(c1nnnn1-c1ccccc1)c1nnnn1-c1ccccc1` was > 40 µM (inactive); that for `CCN(CC)Cc1c(O)c(Cl)cc2c(C)c(C)c(=O)oc12` was > 40 µM (inactive). The value for `CCc1oc2ccccc2c1C(=O)CCN1CCCCC1` was > 40 µM (inactive). In the case of `CCCCCC(=O)N1CCN(CCN=CC2=C(O)CC(c3ccc(OC)c(OC)c3)CC2=O)CC1` (configuration not stated) it was > 40 µM (inactive); in that of `O=c1c2ccccc2nc(-c2ccc(Cl)c(Cl)c2)n1O`, > 40 µM (inactive).

For `O=C(O)c1c[nH]c(=S)n1-c1ccc(F)cc1`, the EC50 was > 40 µM (inactive).

As to `Cc1cc(C)c(S(=O)(=O)c2ccccc2)c(OC(=O)c2cc(F)c(F)cc2Cl)n1`, the EC50 was > 40 µM (inactive). Take `COc1ccc(OC)c(NC(=S)N2CCN(C/C=C/c3ccccc3)CC2)c1`: the EC50 is > 40 µM (inactive). The value for `Cc1cccc(NC(=O)c2c(O)c3cccc4c3n(c2=O)CCC4)n1` was > 40 µM (inactive). Take `O=Cc1cccn1-c1sc2c(c1C(=O)O)CCCC2`: the EC50 is > 40 µM (inactive).

For `C[C@]12CC[C@@H](O)C[C@@H]1CC[C@@H]1[C@@H]2CC[C@]2(C)[C@@H](O)CC[C@@H]12`, the EC50 is > 40 µM (inactive). For `CC(C)c1nnc(NC(=O)c2c(O)c3cccc4c3n(c2=O)CCC4)s1`, the EC50 is > 40 µM (inactive).

In the case of `C=CCn1c(-c2ccc(OC)cc2)csc1=Nc1c(C)n(C)n(-c2ccccc2)c1=O`, the EC50 is > 40 µM (inactive). Regarding `CCc1cc2c(=O)c(Oc3ccccc3)c(C)oc2cc1O`, the EC50 was > 40 µM (inactive). In the case of `Cc1cc(C)cc(CC2CC(=O)N(c3ccc(Cl)cn3)C2=O)c1` (configuration not stated) it was > 40 µM (inactive); in that of `O=C1/C(=C\c2cccnc2)CN(Cc2ccccc2)C/C1=C\c1cccnc1`, > 40 µM (inactive); in that of `COc1ccc(-c2cc(C(F)(F)F)nc(S(C)(=O)=O)n2)cc1`, > 40 µM (inactive).

With `COC(=O)CCS(=O)(=O)c1nc(-c2ccccc2)cc(C(F)(F)F)n1`, the EC50 was > 40 µM (inactive).

Regarding `CCCCC1C(=O)CC[C@H]2[C@@H]1CC(=O)[C@@H]2C/C=C\CCCC(=O)O` (some centres not stated), the EC50 is > 40 µM (inactive). In the case of `c1ccc(-c2c(-c3ccccc3)n(Cc3ccco3)c3ncnc(NCCCn4ccnc4)c23)cc1` it was > 40 µM (inactive); in that of `COc1ccccc1C(=O)Oc1ccc2c(c1)O/C(=C\c1ccncc1)C2=O`, > 40 µM (inactive).

As to `Cc1ccc(N(C(=O)CS(=O)CC(=O)Nc2ccc(F)cc2)C(C(=O)NC2CCCCC2)c2ccco2)cc1` (configuration not stated), the EC50 is > 40 µM (inactive). In the case of `O=c1[nH]c2ccccc2nc1C(Cl)c1ccccc1` (configuration not stated) it was > 40 µM (inactive). In the case of `COc1c(Br)cc(Br)cc1/C=N/n1c(C)nnc1C` it was > 40 µM (inactive). Regarding `COC(=O)CSc1ncccc1-c1nc2ccccc2[nH]1`, the EC50 is > 40 µM (inactive). With `CCSc1nnc(NC(=O)C2(C)Cc3ccccc3C(=O)O2)s1` (configuration not stated), the EC50 is > 40 µM (inactive).

As to `Cc1cc(C2C(C#N)=C(N)Oc3n[nH]c(C)c32)c(C)s1` (configuration not stated), the EC50 is > 40 µM (inactive). In the case of `C=C(C(=O)c1ccccc1)C(CC(=O)c1ccccc1)c1ccccc1` (configuration not stated) it was > 40 µM (inactive); in that of `C[C@]12CC[C@@H]3c4ccc(O)cc4CC[C@H]3[C@@H]1CC[C@@H]2OC(=O)CCC(=O)O`, > 40 µM (inactive). In the case of `Cc1ccc(C)c(N2CCN(S(=O)(=O)c3c(C)noc3/C=C/N(C)C)CC2)c1` it was > 40 µM (inactive); in that of `Cc1ccc(-c2nc3ccc(Cl)cc3n2OC(=O)N(C)C)cc1`, > 40 µM (inactive); in that of `COC(=O)c1cc(OC)c(OC)cc1NC(=S)Nc1cccc(C(C)=O)c1`, > 40 µM (inactive). In the case of `Oc1ccc(Br)cc1C=Nc1ccc2[nH]ncc2c1` it was > 40 µM (inactive); in that of `CC1(C)CC(=O)c2sc(NS(C)(=O)=O)nc2C1`, > 40 µM (inactive). Take `CC(C)(C)C1CCc2[nH]nc(C(=O)O)c2C1` (configuration not stated): the EC50 is > 40 µM (inactive).

Regarding `Cc1ccc2[nH]c(=O)c(CN(CCO)Cc3nnnn3CCc3ccccc3)cc2c1`, the EC50 was > 40 µM (inactive).

`CC(c1ccccc1)N1CCn2c(nc3cc(NC(=O)c4cccs4)ccc32)C1` (configuration not stated): the EC50 is > 40 µM (inactive). The value for `CCOc1ccc(N=Cc2c(O)c3ccccc3oc2=O)cc1` was > 40 µM (inactive); that for `COc1cccc(/C=C/C(=O)c2c(O)cc(C)oc2=O)c1O` was > 40 µM (inactive). Turning to `C=CCn1c(O)c(C(CC)=NCCN2CCOCC2)c(=O)[nH]c1=O`, the EC50 is > 40 µM (inactive).

Take `CN1CCN(CC(=O)Nc2ccc(Cl)cc2Cl)CC1`: the EC50 is > 40 µM (inactive). With `CC(C)CN=C(NS(=O)(=O)c1ccccc1)C(Cl)(Cl)Cl`, the EC50 was > 40 µM (inactive).

As to `Cc1cc(C)nc(SCc2cc(=O)c(OC(=O)c3ccc(Br)o3)co2)n1`, the EC50 is > 40 µM (inactive).
